pIC50: −log10 of the molar value. Read-outs that look alike come from different tables or passages of the source.

Experiment [1] deals with DLD-1 cells xenograft. As to the kind of experiment: DLD-1 subcutaneous tumour xenograft mouse model. The following applies: DLD-1 xenografted mice, 25 mg/kg intraperitoneal once every 2 days, after 21 days. It is filed as in vivo. The procedure:
(§1) Female J:Nu outbred nude mice (5-6 weeks old) were injected subcutaneously at the right flank with 1×10^6 HCT116 or DLD-1 cells in 1:1 Hank's Balanced salt solution/Matrigel. Mice were assigned into treatment groups (4-5 mice per group) when tumour volumes reached 50-100 mm^3. Vehicle control (Ethanol:Kolliphor EL:saline=1:1:8), NYH001 (25 mg/kg), NYH002 (25 mg/kg) or 5-flurouracil (5-FU, 25 mg/kg) was given once every 2 days by intraperitoneal injection for 3 weeks. Bodyweight of the mice was taken every day and tumour size was measured twice a week. Tumour sizes were calculated using the formula, volume=(length×width^2)/2 mm^3. At the end of the 3 weeks treatment period, the mice were sacrificed and tumours excised. All procedures were approved by the NTU Institutional Animal Care and Use Committee (IACUC) and conducted in accordance with the IACUC protocol A20001.

The test system of experiment [2] is HCT116 cells xenograft. Nature of the experiment: HCT116 subcutaneous tumour xenograft mouse model. Conditions: HCT116 xenografted mice, 25 mg/kg intraperitoneal once every 2 days, after 21 days. It counts as in vivo. The procedure:
as §1

Experiment [3] has as its system A549. As to the kind of experiment: MTT cytotoxicity assay, A549. Conditions: Homo sapiens, A549, lung carcinoma, 48 hours, absolute IC50. It is filed as cell-based. As to the method: (§2) To test the cytotoxicity effect of the compounds NYH001-NYH005 in various cancer cell types, different cancer cells were treated with the compounds for 48 hours and analyzed using MTT assay. […] Absolute IC50 values of the compounds were calculated (Table 1, FIG. 1A-C).
A general note: Formazan colour is commonly taken as a measure of viable cells.

Experiment [4] relates to DLD-1. Nature of the experiment: MTT cytotoxicity assay, DLD-1. It counts as cell-based. The following applies: Homo sapiens. As to the method:
as §2

The test system of experiment [5] is Hs746T. Nature of the experiment: MTT cytotoxicity assay, Hs746T. It is filed as cell-based. The following applies: Homo sapiens, stomach carcinoma, 48 hours, absolute IC50. As to the method:
as §2

The subject of experiment [6] is Hep3B. As to the kind of experiment: MTT cytotoxicity assay, Hep3B. Conditions: Homo sapiens, liver carcinoma, 48 hours, absolute IC50. It counts as cell-based. As to the method:
as §2

The subject of experiment [7] is H1299. As to the kind of experiment: MTT cytotoxicity assay, H1299. It counts as cell-based. Conditions: Homo sapiens, NCI-H1299, H1299, lung carcinoma, 48 hours, absolute IC50. The procedure:
as §2

Experiment [8] has as its system Du145. As to the kind of experiment: MTT cytotoxicity assay, Du145. It counts as cell-based. The following applies: Homo sapiens, DU-145, Du145, prostate carcinoma, 48 hours, absolute IC50. As to the method:
as §2

Experiment [9] has as its system HCT116. As to the kind of experiment: MTT cytotoxicity assay, HCT116. The following applies: Homo sapiens, HCT-116, HCT116, colon carcinoma, 48 hours, absolute IC50. It counts as cell-based. As to the method:
as §2

The subject of experiment [10] is human myeloid leukemia cell line K562. The following applies: cited from earlier work; for pIC50: read-out: IC50.
The test system of experiment [11] is Huh7. As to the kind of experiment: MTT cytotoxicity assay, Huh7. Conditions: Homo sapiens, Huh-7, Huh7, liver carcinoma, 48 hours, absolute IC50. It is filed as cell-based. The procedure: as §2
Experiment [12] concerns MDA-MB-231. As to the kind of experiment: MTT cytotoxicity assay, MDA-MB-231. The following applies: Homo sapiens, MDA-MB-231, breast adenocarcinoma, 48 hours, absolute IC50. It is filed as cell-based. As to the method: as §2
Experiment [13] relates to Mcf-7. As to the kind of experiment: MTT cytotoxicity assay, Mcf-7. It is filed as cell-based. The following applies: Homo sapiens, MCF7, Mcf-7, breast adenocarcinoma, 48 hours, absolute IC50. As to the method: as §2
The test system of experiment [14] is PC3. As to the kind of experiment: MTT cytotoxicity assay, PC3. It is filed as cell-based. The following applies: Homo sapiens, PC-3, PC3, prostate adenocarcinoma, 48 hours, absolute IC50. The procedure: as §2
Experiment [15] relates to AGS. As to the kind of experiment: MTT cytotoxicity assay, AGS. Conditions: Homo sapiens, stomach adenocarcinoma, 48 hours, absolute IC50. It is filed as cell-based. The procedure:
as §2

Experiment [16] deals with human hepatoma cell line (SMMC-7221). Conditions: cited from earlier work; for pIC50: read-out: IC50.
Experiment [17] has as its system cancer cells. As to the kind of experiment: Colony formation (clonogenic) assay. It is filed as cell-based. Conditions: some cell lines, concentration as low as 1 μM. The procedure:
To further confirm the growth inhibitory effect of compounds on cancer cells, colony formation assays were performed. Cells were treated with various doses of the compounds and allowed to grow for 7-10 days till they form colonies. Colonies were fixed and stained with 0.5% w/v crystal violet, containing methanol. The cell culture plates were rinsed with distilled water before scanning for quantification. Colony counts were quantified using Image J software.

Experiment [18] has as its system human KB oral carcinoma cells. Conditions: cytotoxic activity / proliferation; cited from earlier work.
Setting [19] is: DLD-1, colon adenocarcinoma, 48 hours, MTT, absolute IC50, read-out: IC50.

Take `O=c1[nH]cc(F)c(=O)[nH]1` [5-FU, 5-flurouracil, reference compound]: in experiment [1], the “reduction of average tumor volume compared to vehicle control” value (from here on “reduction of average tumor volume”) was 32.3% and the “reduction of average tumor weight compared to vehicle control” value (“reduction of average tumor weight” for short) is 38.7%. In experiment [2], the “reduction of average tumor volume” value was 10.4% and the “reduction of average tumor weight” value is reported as 21.9%.

By pIC50 is commonly meant the IC50 on a negative log10 scale, so that one unit is a factor of ten. Regarding `C=C(C)C(=O)O[C@H]1C/C(C)=C/C(=O)/C=C(/C)[C@@H](O)[C@H]2OC(=O)C(=C)C12` (some centres unmarked) [NYH001, Molephantin], the pIC50 in experiment [3] was 4.82; in [4] (setting [19]), 5.82; in experiment [5], 5.72; in [6], 5.50; in experiment [7], 5.53; in experiment [8] it was 5.38. The pIC50 in experiment [9] was 5.58; in experiment [10], 5.10; in [11] it was 5.54; in experiment [12], 5.52; in [13] it was 5.32; in [14] it was 5.61. Further, the pIC50 is 5.81 in experiment [15] and 5.24 in experiment [16]. In experiment [2], the “reduction of average tumor volume” value turned out to be 35.4%. The “reduction of average tumor weight” value in experiment [2] stood at 41.7%.

For the compound `C=C(C)C(=O)O[C@H]1C/C(C)=C/C(=O)/C=C(/C)[C@@H](OC(=O)c2ccccc2)[C@H]2OC(=O)C(=C)C12` (some centres unmarked) [NYH002], the pIC50 in [3] is 5.29; in experiment [4] (setting [19]), 6.45; in experiment [5], 6.33; in experiment [6], 6.04; in experiment [7] it was 5.87; in experiment [8] it was 5.63. Also, the pIC50 in [9] is 6.06; in [11], 5.94; in experiment [12] it was 6.04; in [13] it was 5.70; in experiment [14] it was 5.89; in experiment [15] it was 6.38. The “reduction of average tumor volume” value in experiment [1] was determined as 51.9%; in experiment [2] it was 46.5%. The “reduction of average tumor weight” value in [1] was 57.3%; in [2] it was 49.3%. Also, the colonies formed entry in [17] was “did not result in any colonies formed”.

Consider `C=C(C)C(=O)O[C@H]1C/C(C)=C/C(=O)/C=C(/C)[C@@H](OC(=O)c2ccc(C(F)(F)F)cc2)[C@H]2OC(=O)C(=C)C12` (some centres unmarked) [NYH004], for which the pIC50 is 5.28 in [3]; 6.03 in experiment [4] (setting [19]); 5.92 in [5]; 5.73 in experiment [6]; 5.78 in experiment [7]; 5.52 in [8]. Moreover, the pIC50 in [9] is 5.88; in [11], 5.80; in [12], 5.94; in experiment [13] it was 5.69; in experiment [14], 5.70; in experiment [15] it was 5.99.

For the compound `C=C(C)C(=O)O[C@H]1C/C(C)=C/C(=O)/C=C(/C)[C@@H](OC(=O)c2cc(C(F)(F)F)cc(C(F)(F)F)c2)[C@H]2OC(=O)C(=C)C12` (some centres unmarked) [NYH005], the pIC50 in experiment [3] was 5.23; in [4] (setting [19]) it was 6.21; in experiment [5], 5.71; in [6] it was 5.70; in [7], 5.81; in experiment [8], 5.44. The pIC50 in [9] is 5.80; in experiment [11], 5.68; in [12], 5.83; in experiment [13], 5.62; in experiment [14], 5.61; in [15], 5.95.

As to `C=C(C)C(=O)O[C@H]1C/C(C)=C/C(=O)/C=C(/C)[C@@H](OC(=O)c2ccc([N+](=O)[O-])cc2)[C@H]2OC(=O)C(=C)C12` (some centres unmarked) [NYH007], the pIC50 in experiment [4] (DLD-1 cells, read-out: IC50 (cytotoxic effect)) was 6.46.

`C=C(C)C(=O)O[C@H]1C/C(C)=C\[C@@]2(OC)C=C(C)[C@@H](O2)[C@H]2OC(=O)[C@@H](COC)[C@@H]21` [Tomenphantopin-C]: the IC50 result in experiment [10] and in [16] was “inactive” in each case.

As for Tomenphantine-A, in [18], the ED50 is 3.0 µg/mL.

On to Tomenphantine-B, for which the ED50 in experiment [18] is 2.7 µg/mL.

On to Tomenphantopin-A, for which the ED50 in [18] is 2.5 µg/mL.

Tomenphantopin-B: the ED50 in [18] was 5.0 µg/mL.

As for Tomenphantopin-D, the pIC50 in experiment [10] was 4.35; in experiment [16], 4.95.

As to Tomenphantopin-E, the IC50 result in experiment [10] and in experiment [16] was “inactive” in each case.

For Tomenphantopin-F, the IC50 result in experiment [10] and in [16] was “inactive” each time.

These data come from patent publication US20250304544A1, “MOLEPHANTIN DERIVATIVES USEFUL IN THE TREATMENT OF CANCER” (Nanyang Technological University, priority 2021, published 2025).
